Series [1] concerns the target T1, acetylcholinesterase (AChE, from an electric eel) (Electrophorus electricus, UniProt O42275).
T1 construct: purchased Sigma-Aldrich
As to the kind of experiment: biochemical. Here is the method:
(§1) Cholinesterase (ChE) inhibitory activity was evaluated using a modified Ellman’s spectrophotometric method. Acetylcholinesterase (AChE, from electric eel), butyrylcholinesterase (BuChE, from equine serum), 5,5′-dithiobis-(2-nitrobenzoic acid) (Ellman’s reagent, DTNB), S-butyrylthiocholine iodide (BTCI), acetylthiocholine iodide (ATCI), and tarcine hydrochloride were purchased from Sigma-Aldrich. Tarcine hydrochloride was used as a reference standard. All the assays were carried out in 0.1 M KH2PO4/K2HPO4 buffer (pH = 7.4). Stock solutions of tested compounds (10 mM) were prepared in DMSO (below 0.5%, v/v) and diluted in phosphate buffer. The assay was performed in 96-well plate by adding 25 μL of 1 mM acetylthiocholine iodide or butyrylthiocholine iodide used as substrate in the assay, 125 μL of 1 mM 5,5′-dithiobis-(2-nitrobenzoic acid) (DTNB), 25 μL of 0.1 M phosphate buffer (pH = 7.4), 25 μL of testing substance in various concentrations, and 50 μL of 0.2 Units/mL AChE from an electric eel or BuChE from equine serum, respectively. At least five concentrations of the test compounds were assayed. […] The enzyme activity and the percentage inhibition were determined.

In series [2] the target is T2, butyrylcholinesterase (BuChE, from horse serum) (Equus caballus, UniProt P81908).
T2 construct: purchased Sigma-Aldrich
Briefly: biochemical. The conditions noted are these: equine serum BuChE, Ellman's method, pH 7.4; means ± SEM of at least three experiments; read-out: IC50 BuChE Inhibition. Here is the method:
as §1
Background: Ellman's reagent forms a yellow product with free thiols.

The nature of series [3]: Metal chelation by UV–vis spectrometry, Job's method and affinity estimate (Cu). The settings on record: CH3OH/H2O (v/v = 9/1), UV–vis, 2L+M⇔ML2. Format: physicochemical. The source says:
(§2) Given the 8-hydroxy(amino)quinoline moiety with the properties to bind metal ions, the abilities of all the compounds in binding metal ions (Cu^II, Fe^III, Zn^II) were studied by UV–vis spectrometry. At first three compounds were chose to test the binding abilities. Upon the addition of CuCl2 or ZnSO4 the maximum absorption suffered a bathochromic shift, pointing out the formation of complex compound–Cu^II. […] […].
(§3) To determine the stoichiometry of the complex compound–Cu^II, the technique of continuous variations (also called Job’s method) was used by preparing solutions of compounds 15a, 17b and CuSO4 so that the sum of concentrations of both species was constant at […] in all samples, but the proportions of both components varied between 0 and 100%. The UV spectra were recorded and the absorbance change at the maximum absorption wavelength of the compound-Cu^II complex, meaning the 15a-Cu^II complex at 264 nm and the 17b-Cu^II at 265 nm, respectively. The absorbance change was plotted versus the mole fraction of the compound, giving two straight lines whose equations were calculated. […] […].
(§4) Since all the ligands studied L from ML2 species and in accordance with the Beer–Lambert law, complexation reactions can be summarized as 2L+M⇔ML2 with K = 1−α/4C^2α^3 , and α can be calculated from the data of the absorption.
(§5) Metal-chelating properties were evaluated by UV–vis spectrometry. To screen the ability of chelating metal ions, the same concentrations of compound and metal ion were mixed in CH3OH/H2O (v/v = 9/1), and the UV–vis spectrum was tested; compared to the compound, the maximum absorption that suffered a bathochromic shift would point out the formation of a complex compound–metal ion. The stoichiometry of the complex compound–metal ion was determined by Job’s method. The affinity of compounds 15–17 as ligands (excepted 15f, 16d, 16g, 16k) for Cu^II or Zn^II were estimated in the CH3OH/H2O solution (v/v = 9/1). Since all the ligands studied L from ML2 species and in accordance with the Beer–Lambert law, complexation reactions can be summarized as 2L+M⇔ML2 with K = 1−α/4C^2α^3 , and α = A/Amax; A was the data of absorption tested when the compound–metal ion = 2/1 under the maximum absorption wavelength of the complex, Amax was the absorption when the compound completely formed a complex with the metal ion; the data can be obtained as an approximation when the metal ion is in excess, and the absorption changes little as the concentration of metal ion still increases.

Series [4] addresses T3, electric eel AChE (eeAChE) (Electrophorus electricus, UniProt O42275).
T3 construct: purchased Sigma-Aldrich
Briefly: Kinetic study of AChE inhibition (Lineweaver–Burk plots). Format: biochemical. The settings on record: 16e at 10, 50 and 100 nM, Lineweaver–Burk plot.
Description: To elucidate the mechanism of AChE’s inhibition by the synthesized hybrids, a detailed enzyme kinetic study was conducted using electric eel AChE (eeAChE).
The slope (Km/Vmax) reflects the apparent enzyme–substrate affinity, whereas the y-intercept (1/Vmax) corresponds to the maximum reaction velocity.
The assay medium contained 25 μL of PBS (pH 7.4), 50 μL of enzyme, 25 μL of compound solution, and 125 μL of 1.0 mM DTNB; the reaction was started by addition of 25 μL of different concentrations of ATC.
The slope (Km/Vmax) reflects the enzyme’s affinity for the substrate in the presence of the inhibitor, while the y-intercept (1/Vmax) indicates the maximum velocity of the reaction.

Series [5] can be described thus: Metal chelation by UV–vis spectrometry, stoichiometry and affinity estimate (Zn). The series is classed as physicochemical. The conditions noted are these: CH3OH/H2O (v/v = 9/1), 2L+M⇔ML2.
Excerpt: as §2, §3, §4, §5

Series [6] has as its target T4, Aβ1–42 (Homo sapiens, UniProt P05067).
T4 construct: aggregation of Aβ1–42 synthetic peptide into fibrils
Briefly: Inhibition of self-induced Aβ1–42 aggregation (ThT fluorescence). The series is classed as biochemical. The conditions noted are these: 20 μM compound, thioflavin-T fluorescence, mean ± SD of at least three independent experiments; read-out: Aβ Aggregation Inhibition (%), self-induced Aβ1–42. Here is the method:
Self-induced Aβ1–42 aggregation of all the compounds we obtained was also evaluated. […] ThT is a histochemical dye that is known to bind to the peptide β-sheet conformation, which is the predominant secondary structure of amyloid-beta fibrils. […] The inhibition studies were carried out upon incubating Aβ1–42 with and without the compounds.
Aβ1–42 was dissolved in 100% 1,1,1,3,3,3-[…] (HFIP) to a concentration of 1 mg/mL, sonicated in a water bath overnight, aliquoted into microcentrifuge tubes, dried under vacuum, and stored at −20 °C. Immediately prior to use, the HFIP-treated Aβ1–42 was dissolved in dimethylsulfoxide (DMSO) as the stored solution. […] Amounts of 5 μL of compound (200 μM) and 5 μL of 200 μM Aβ1–42 were added into 40 μL of phosphate-buffered saline (PBS at pH 7.4). After incubation at room temperature on a thermostatic shaker for 72 h, 100 μL of 5 μM ThT solution (in PBS at pH 7.4) was added to the reaction solution. […] The Aβ1–42 aggregation inhibition percentage was calculated using the following formula: inhibition percentage = (F1 − F2)/(F1 − F0) × 100%.

On the set-up of series [7]: method as in PMID 17382398. The settings on record: data from the literature ref 50; cited from earlier work.
Details of series [8]: method as in PMID 17382398. The settings on record: data from the literature ref 50; cited from earlier work. This is another data set of the same source.

Broadly, the IC50 is the concentration that inhibits the measured activity by half. In general, inhibition refers to the share of the control response that was lost under treatment.

SMILES strings stand for the structures.

T1 sequence (O42275 24-633): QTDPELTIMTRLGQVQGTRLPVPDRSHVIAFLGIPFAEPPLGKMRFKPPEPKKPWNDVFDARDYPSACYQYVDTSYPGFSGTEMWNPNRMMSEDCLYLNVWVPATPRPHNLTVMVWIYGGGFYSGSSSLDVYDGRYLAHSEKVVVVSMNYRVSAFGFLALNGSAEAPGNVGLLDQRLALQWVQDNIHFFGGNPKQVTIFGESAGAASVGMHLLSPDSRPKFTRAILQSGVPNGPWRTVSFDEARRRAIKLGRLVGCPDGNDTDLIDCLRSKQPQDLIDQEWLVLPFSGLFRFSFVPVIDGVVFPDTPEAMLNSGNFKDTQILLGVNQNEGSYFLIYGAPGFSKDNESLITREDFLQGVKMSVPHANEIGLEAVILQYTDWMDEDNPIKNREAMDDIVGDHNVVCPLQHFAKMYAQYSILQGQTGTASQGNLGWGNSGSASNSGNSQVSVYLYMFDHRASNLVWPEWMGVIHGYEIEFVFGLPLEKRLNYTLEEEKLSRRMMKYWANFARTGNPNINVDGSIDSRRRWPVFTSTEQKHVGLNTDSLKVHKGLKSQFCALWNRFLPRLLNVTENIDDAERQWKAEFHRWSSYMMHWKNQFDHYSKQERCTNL
T3 sequence (O42275 24-633): as above
T2 sequence (P81908 whole entry): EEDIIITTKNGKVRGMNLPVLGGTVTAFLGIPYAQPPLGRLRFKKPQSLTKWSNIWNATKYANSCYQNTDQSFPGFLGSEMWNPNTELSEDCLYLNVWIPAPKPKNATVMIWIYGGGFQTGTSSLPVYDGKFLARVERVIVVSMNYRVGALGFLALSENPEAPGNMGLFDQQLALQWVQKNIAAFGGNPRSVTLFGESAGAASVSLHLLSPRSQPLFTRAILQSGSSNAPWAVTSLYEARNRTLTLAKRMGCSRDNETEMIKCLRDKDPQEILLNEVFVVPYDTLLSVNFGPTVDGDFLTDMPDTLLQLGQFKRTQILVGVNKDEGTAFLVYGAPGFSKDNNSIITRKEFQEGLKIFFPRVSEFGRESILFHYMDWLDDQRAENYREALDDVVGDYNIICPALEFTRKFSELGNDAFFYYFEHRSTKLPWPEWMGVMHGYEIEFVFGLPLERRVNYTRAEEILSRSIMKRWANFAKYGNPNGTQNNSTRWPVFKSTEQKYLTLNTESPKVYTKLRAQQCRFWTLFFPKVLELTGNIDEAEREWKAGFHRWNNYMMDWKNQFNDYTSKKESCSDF
T4 sequence (P05067 672-713): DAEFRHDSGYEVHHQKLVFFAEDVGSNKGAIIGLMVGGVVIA

As to `Oc1cccc2ccc(CN3CCN(CCCNc4c5c(nc6ccccc46)CCCC5)CC3)nc12` [Compound 16e, 2-((4-(3-((1,2,3,4-Tetrahydroacridin-9-yl)amino)propyl)piperazin-1-yl)methyl)quinolin-8-ol], the IC50 in series [1] (electric eel AChE, Ellman's method, pH 7.4, means ± SEM of at least three experiments, read-out: IC50 AChE Inhibition) came out at 100 ± 3.2 nM; in series [2], 43 ± 5 nM. For the same compound, the “Selectivity Index = IC50 (AChE)/IC50 (BuChE)” value in series [1] (ratio of eeAChE and equine BuChE IC50) was 2.33. For the same compound, the “LogK Cu (affinity of ligand for Cu^II, ML2)” value in series [3] is 9.46. The “Type of AChE inhibition” value in series [4] is recorded as “mixed-type inhibition”. Moreover, in series [5], the “LogK Zn (affinity of ligand for Zn^II, ML2)” value is 9.63. The inhibition at 20 µM in series [6] stood at 80.5 ± 4.4%.
Regarding `Oc1c(I)cc(Cl)c2cccnc12` [clioquinol, reference compound], the “LogK Zn, value in parentheses” value in series [7] is on record as 8.84. In addition, in series [8], the “LogK Cu, value in parentheses” value is 10.08. In series [3], the “LogK Cu (affinity of ligand for Cu^II, ML2)” value is 9.86. For the same compound, the “LogK Zn (affinity of ligand for Zn^II, ML2)” value in series [5] is recorded as 8.38.

(Values after publication PMC12430544 (Molecules, 2025).)
